Experimental data: ChEMBL document CHEMBL4400519, “Indazolylketones as new multitarget cannabinoid drugs” (Eur J Med Chem, 2019)
The source made the active and inactive calls. The rule behind the calls is not given here.

How the values were obtained:
[1] = biological target: T1, Cannabinoid receptor (Mus musculus) (UniProt P47746+P47936); assay: Agonist activity at cannabinoid receptor in ICR mouse vas deferens assessed as inhibition of electrically induced contractions at 9 x 10^-7 M after 10 mins relative to control; type: protein assay
T1 sequence (P47746 whole entry, looked up): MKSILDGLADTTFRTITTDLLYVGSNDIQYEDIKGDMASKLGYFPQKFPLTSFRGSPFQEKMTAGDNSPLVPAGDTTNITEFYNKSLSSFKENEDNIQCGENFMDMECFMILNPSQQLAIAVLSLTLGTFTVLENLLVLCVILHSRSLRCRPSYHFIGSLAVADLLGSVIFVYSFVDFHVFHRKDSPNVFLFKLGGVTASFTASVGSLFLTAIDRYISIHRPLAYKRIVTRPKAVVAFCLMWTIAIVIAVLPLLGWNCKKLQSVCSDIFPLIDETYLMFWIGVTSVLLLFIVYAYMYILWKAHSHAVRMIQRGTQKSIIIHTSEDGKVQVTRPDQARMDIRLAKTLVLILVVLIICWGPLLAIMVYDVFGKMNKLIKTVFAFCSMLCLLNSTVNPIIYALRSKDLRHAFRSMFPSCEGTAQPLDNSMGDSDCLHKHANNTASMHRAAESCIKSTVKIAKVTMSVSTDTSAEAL
T1 sequence (P47936 whole entry, looked up): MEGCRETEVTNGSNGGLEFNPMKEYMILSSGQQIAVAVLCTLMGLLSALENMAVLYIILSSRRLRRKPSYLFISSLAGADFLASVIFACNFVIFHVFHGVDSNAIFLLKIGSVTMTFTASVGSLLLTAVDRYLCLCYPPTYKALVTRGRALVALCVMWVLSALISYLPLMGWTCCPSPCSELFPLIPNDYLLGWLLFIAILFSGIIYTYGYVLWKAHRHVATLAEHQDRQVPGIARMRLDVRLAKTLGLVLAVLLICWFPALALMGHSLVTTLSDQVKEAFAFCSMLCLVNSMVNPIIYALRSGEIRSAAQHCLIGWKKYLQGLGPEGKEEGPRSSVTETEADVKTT

[2] = biological target: T1, Cannabinoid receptor (Mus musculus); assay: Agonist activity at cannabinoid receptor in ICR mouse vas deferens assessed as inhibition of electrically induced contractions at 2.7 x 10^-6 M after 10 mins relative to control; type: protein assay
[3] = biological target: T1, Cannabinoid receptor (Mus musculus); assay: Agonist activity at cannabinoid receptor in ICR mouse vas deferens assessed as inhibition of electrically induced contractions at 8.1 x 10^-6 M after 10 mins relative to control; type: protein assay
[4] = biological target: T1, Cannabinoid receptor (Mus musculus); assay: Agonist activity at cannabinoid receptor in ICR mouse vas deferens assessed as inhibition of electrically induced contractions at 1.82 x 10^-5 M after 10 mins relative to control; type: protein assay
[5] = biological target: T1, Cannabinoid receptor (Mus musculus); assay: Agonist activity at cannabinoid receptor in ICR mouse vas deferens assessed as inhibition of electrically induced contractions at 10^-7 M after 10 mins in presence of CB1 antagonist AM251 relative to control; type: protein assay
[6] = biological target: T1, Cannabinoid receptor (Mus musculus); assay: Agonist activity at cannabinoid receptor in ICR mouse vas deferens assessed as inhibition of electrically induced contractions at 3 x 10^-7 M after 10 mins in presence of CB1 antagonist AM251 relative to control; type: protein assay
[7] = biological target: T1, Cannabinoid receptor (Mus musculus); assay: Agonist activity at cannabinoid receptor in ICR mouse vas deferens assessed as inhibition of electrically induced contractions at 9 x 10^-7 M after 10 mins in presence of CB1 antagonist AM251 relative to control; type: protein assay
[8] = biological target: T1, Cannabinoid receptor (Mus musculus); assay: Agonist activity at cannabinoid receptor in ICR mouse vas deferens assessed as inhibition of electrically induced contractions at 2.7 x 10^-6 M after 10 mins in presence of CB1 antagonist AM251 relative to control; type: protein assay
[9] = biological target: T1, Cannabinoid receptor (Mus musculus); assay: Agonist activity at cannabinoid receptor in ICR mouse vas deferens assessed as inhibition of electrically induced contractions at 8.1 x 10^-6 M after 10 mins in presence of CB1 antagonist AM251 relative to control; type: protein assay
[10] = biological target: T1, Cannabinoid receptor (Mus musculus); assay: Agonist activity at cannabinoid receptor in ICR mouse vas deferens assessed as inhibition of electrically induced contractions at 1.82 x 10^-5 M after 10 mins in presence of CB1 antagonist AM251 relative to control; type: protein assay
[11] = biological target: T1, Cannabinoid receptor (Mus musculus); assay: Agonist activity at cannabinoid receptor in ICR mouse vas deferens assessed as inhibition of electrically induced contractions at 10^-7 M after 10 mins in presence of CB2 antagonist AM630 relative to control; type: protein assay
[12] = biological target: T1, Cannabinoid receptor (Mus musculus); assay: Agonist activity at cannabinoid receptor in ICR mouse vas deferens assessed as inhibition of electrically induced contractions at 3 x 10^-7 M after 10 mins in presence of CB2 antagonist AM630 relative to control; type: protein assay
[13] = biological target: T1, Cannabinoid receptor (Mus musculus); assay: Agonist activity at cannabinoid receptor in ICR mouse vas deferens assessed as inhibition of electrically induced contractions at 9 x 10^-7 M after 10 mins in presence of CB2 antagonist AM630 relative to control; type: protein assay
[14] = biological target: T1, Cannabinoid receptor (Mus musculus); assay: Agonist activity at cannabinoid receptor in ICR mouse vas deferens assessed as inhibition of electrically induced contractions at 2.7 x 10^-6 M after 10 mins in presence of CB2 antagonist AM630 relative to control; type: protein assay
[15] = biological target: T1, Cannabinoid receptor (Mus musculus); assay: Agonist activity at cannabinoid receptor in ICR mouse vas deferens assessed as inhibition of electrically induced contractions at 8.1 x 10^-6 M after 10 mins in presence of CB2 antagonist AM630 relative to control; type: protein assay
[16] = biological target: T1, Cannabinoid receptor (Mus musculus); assay: Agonist activity at cannabinoid receptor in ICR mouse vas deferens assessed as inhibition of electrically induced contractions at 1.82 x 10^-5 M after 10 mins in presence of CB2 antagonist AM630 relative to control; type: protein assay
Acetylcholinesterase [17] = biological target: T2, Acetylcholinesterase (Homo sapiens, UniProt P22303); assay: Inhibition of human erythrocyte AChE using acetylthiocholine as substrate by Ellman's assay
T2 sequence (P22303 whole entry): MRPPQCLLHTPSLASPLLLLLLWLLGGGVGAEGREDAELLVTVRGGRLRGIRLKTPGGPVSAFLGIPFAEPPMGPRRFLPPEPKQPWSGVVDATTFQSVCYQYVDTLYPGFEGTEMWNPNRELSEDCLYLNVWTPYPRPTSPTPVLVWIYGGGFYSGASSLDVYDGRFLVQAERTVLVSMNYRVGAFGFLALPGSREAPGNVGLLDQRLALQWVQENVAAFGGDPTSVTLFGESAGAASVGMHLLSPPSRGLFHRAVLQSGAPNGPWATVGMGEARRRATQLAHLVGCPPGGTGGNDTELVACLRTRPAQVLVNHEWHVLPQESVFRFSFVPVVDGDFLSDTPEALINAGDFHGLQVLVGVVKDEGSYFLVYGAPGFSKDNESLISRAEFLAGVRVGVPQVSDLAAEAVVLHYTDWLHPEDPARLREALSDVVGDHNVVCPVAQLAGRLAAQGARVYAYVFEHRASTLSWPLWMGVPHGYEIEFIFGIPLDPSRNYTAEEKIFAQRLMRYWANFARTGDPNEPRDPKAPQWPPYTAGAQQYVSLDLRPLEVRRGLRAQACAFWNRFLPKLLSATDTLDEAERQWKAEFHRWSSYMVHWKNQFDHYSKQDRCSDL

Cholinesterase [18] = biological target: T3, Cholinesterase (Homo sapiens, UniProt P06276); assay: Inhibition of human serum BChE using butyrylthiocholine as substrate by Ellman's assay
T3 sequence (P06276 whole entry): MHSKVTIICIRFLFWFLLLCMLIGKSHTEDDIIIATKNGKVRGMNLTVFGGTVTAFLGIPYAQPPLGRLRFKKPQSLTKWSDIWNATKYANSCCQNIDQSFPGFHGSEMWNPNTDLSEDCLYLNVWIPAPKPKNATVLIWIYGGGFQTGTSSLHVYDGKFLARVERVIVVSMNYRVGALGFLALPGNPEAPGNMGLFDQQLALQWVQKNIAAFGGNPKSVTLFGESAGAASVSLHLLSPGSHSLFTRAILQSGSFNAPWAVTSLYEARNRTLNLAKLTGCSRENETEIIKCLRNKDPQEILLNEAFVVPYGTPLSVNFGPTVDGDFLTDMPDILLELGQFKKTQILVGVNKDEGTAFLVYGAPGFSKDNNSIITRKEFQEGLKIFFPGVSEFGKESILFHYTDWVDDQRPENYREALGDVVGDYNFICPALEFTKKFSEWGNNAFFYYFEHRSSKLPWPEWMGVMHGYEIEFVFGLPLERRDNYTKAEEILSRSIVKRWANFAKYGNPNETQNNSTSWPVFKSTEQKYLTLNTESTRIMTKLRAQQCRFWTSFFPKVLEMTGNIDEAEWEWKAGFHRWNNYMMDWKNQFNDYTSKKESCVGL

[19] = biological target: Beta-secretase 1 (Homo sapiens) (UniProt P56817); assay: Inhibition of human BACE1 at 10 uM incubated for 60 mins using rhodamine-EVNLDAEFK-quencher substrate by FRET assay
Chain of Beta-secretase 1 (Homo sapiens) (P56817 whole entry): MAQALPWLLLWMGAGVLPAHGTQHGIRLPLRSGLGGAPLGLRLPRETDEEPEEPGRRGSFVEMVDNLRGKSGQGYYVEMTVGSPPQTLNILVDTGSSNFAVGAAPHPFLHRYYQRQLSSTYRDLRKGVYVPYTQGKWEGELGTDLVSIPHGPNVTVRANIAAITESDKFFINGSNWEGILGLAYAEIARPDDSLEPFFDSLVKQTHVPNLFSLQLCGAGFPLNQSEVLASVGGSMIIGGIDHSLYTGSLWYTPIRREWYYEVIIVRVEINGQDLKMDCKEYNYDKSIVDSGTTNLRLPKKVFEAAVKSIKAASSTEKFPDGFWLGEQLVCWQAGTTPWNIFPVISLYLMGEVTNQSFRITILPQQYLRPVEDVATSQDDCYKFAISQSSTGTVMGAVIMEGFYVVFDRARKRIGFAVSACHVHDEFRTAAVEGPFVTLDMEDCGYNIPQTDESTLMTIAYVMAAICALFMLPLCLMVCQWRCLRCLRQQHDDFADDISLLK

[20] = Antioxidant activity assessed as trolox equivalent of APPH-induced radical scavenging activity by ORAC-FL assay; type: functional
Homo sapiens [21] = species on record: Homo sapiens; assay: Antiproliferative activity against Alzheimer's patient derived lymphoblast cells at 5 uM after 72 hrs by MTT assay; type: functional
Homo sapiens [22] = species on record: Homo sapiens; assay: Antiproliferative activity against Alzheimer's patient derived lymphoblast cells at 5 uM in presence of CB2 antagonist AM630 after 72 hrs by MTT assay; type: functional
Acetylcholinesterase [23] = biological target: T2, Acetylcholinesterase; assay: Inhibition of human erythrocyte AChE at 10 uM using acetylthiocholine as substrate by Ellman's assay
SH-SY5Y [24] = assay: Toxicity in human SH-SY5Y cells at 20 uM after 24 hrs by MTT assay; type: cell-based
[25] = Antiproliferative activity against normal human derived lymphoblast cells at 5 uM after 72 hrs by MTT assay
[26] = biological target: T1, Cannabinoid receptor (Mus musculus); assay: Agonist activity at cannabinoid receptor in ICR mouse vas deferens assessed as inhibition of electrically induced contractions at 10^-7 M after 10 mins relative to control; type: protein assay
[27] = biological target: T1, Cannabinoid receptor (Mus musculus); assay: Agonist activity at cannabinoid receptor in ICR mouse vas deferens assessed as inhibition of electrically induced contractions at 3 x 10^-7 M after 10 mins relative to control; type: protein assay
SH-SY5Y [28] = assay: Neuroprotective activity against amyloid beta-induced neurodegeneration in human SH-SY5Y cells at 20 uM preincubated for 1 hr followed by amyloid beta addition and measured after 24 hrs by MTT assay; type: functional, cell-based
SH-SY5Y [29] = assay: Neuroprotective activity against amyloid beta-induced neurodegeneration in human SH-SY5Y cells at 20 uM preincubated for 1 hr followed by amyloid beta addition and measured after 24 hrs in presence of CB2 antagonist AM630 by MTT assay; type: functional, cell-based
Cholinesterase [30] = biological target: T3, Cholinesterase; assay: Inhibition of human serum BChE at 10 uM using butyrylthiocholine as substrate by Ellman's assay
Cholinesterase [31] = biological target: T3, Cholinesterase; assay: Competitive inhibition of human serum BChE using butyrylthiocholine as substrate by Lineweaver-Burk plot analysis

SMILES	inhibition [1] [%]	inhibition [2] [%]	inhibition [3] [%]	inhibition [4] [%]	inhibition [5] [%]	inhibition [8] [%]	inhibition [9] [%]	inhibition [10] [%]	inhibition [11] [%]	inhibition [12] [%]	inhibition [14] [%]	inhibition [15] [%]	inhibition [16] [%]	IC50 (Acetylcholinesterase [17]) [µM]	IC50 (Cholinesterase [18]) [µM]	inhibition [19] [%]	Activity [20]	inhibition (Acetylcholinesterase [23]) [%]	inhibition [26] [%]	inhibition [27] [%]	also measured
O=C(c1ccccc1OCc1ccccc1)n1nc(OCCCN2CCCCC2)c2ccccc21	6.4	31.4	74.4	94.7	-6.8	-1	26.4	74.8	-3.1	1.1	-3	29.7	77.5	> 10	0.0025	38.4	inactive	31	–	–	inhibition [6]: -6.8%; inhibition [7]: -4.5%; inhibition [13]: -0.5%; Activity (Homo sapiens [21]): Active; Activity (Homo sapiens [22]): inactive; Activity (SH-SY5Y [24]): Toxic; Activity [25]: Non-Toxic
COc1ccc(CC(=O)n2nc(OCCCN3CCCCC3)c3ccccc32)cc1	16.9	42.5	88.5	96	-9.4	-1.6	61.9	89.7	-9.2	-9.4	14.7	68.5	94.3	> 10	> 10	60	inactive	43	-2.4	-0.3	inhibition [13]: -1.4%; Activity (SH-SY5Y [28]): Active; Activity (SH-SY5Y [29]): inactive; Activity (Homo sapiens [21]): Active; Activity (Homo sapiens [22]): inactive; inhibition (Cholinesterase [30]): 42%; Activity [25]: Non-Toxic
O=C(c1ccc2ccccc2c1)n1nc(OCCN2CCCCC2)c2ccccc21	-3.5	-2.8	4	18.2	–	–	–	–	–	–	–	–	–	> 10	4	50	inactive	43	0.3	-1.2	inhibition (Cholinesterase [31]): Active
O=C(c1ccc2ccccc2c1)n1nc(OCCCN2CCCCC2)c2ccccc21	0.1	1.2	17.2	41.9	–	–	0.7	49.5	–	–	-9.7	20.9	49.1	> 10	2.1	38	inactive	33	-2.1	-1	inhibition (Cholinesterase [31]): Active
O=C(c1cccc(Cl)c1Cl)n1nc(OCCN2CCCC2)c2ccccc21	17.3	27.8	56.3	80.8	-0.3	13	44.8	80.4	0	3.4	14.2	30.4	52.9	> 10	0.23	32.6	0.41 equiv	–	1.6	5.6	inhibition [6]: 3.4%; inhibition [7]: 7.1%; inhibition [13]: 7.9%; Activity (SH-SY5Y [28]): Active; Activity (SH-SY5Y [29]): inactive; Activity (Homo sapiens [21]): Active; Activity (Homo sapiens [22]): inactive; Activity [25]: Non-Toxic
